13 compounds from PubChem BioAssay (NCI) can be followed below.

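Step 1: Grow cells in 96-well plates. Step 2: Expose to compound for 48 hours at 5 concentrations. Step 3: Interpolate endpoints linearly; if unreached, use highest concentration. TGI denotes the concentration required for complete inhibition of growth.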

Holding throughout (assay): NCI tumour cell line growth inhibition, 48 h
Assay [1] relates to SK-OV-3 ovarian.
For assay [2], the system named is COLO 205 colon.
The subject of assay [3] is M14 melanoma.
In assay [4] the test system is SK-MEL-5 melanoma.
Assay [5] relates to OVCAR-4 ovarian.
Assay [6] concerns OVCAR-5 ovarian.
Assay [7] deals with TK-10 renal.
For assay [8], the system named is NCI/ADR-RES ovarian.
Assay [9] concerns HOP-62 NSCLC.
Assay [10] has as its system LOX IMVI melanoma.

Turning to `O=C1N[C@@H](COc2ccc(C=Nc3ccc(CCc4ccc(N=Cc5ccc(OC[C@@H]6COC(=O)N6)cc5)cc4)cc3)cc2)CO1`, the TGI in assay [1], in assay [2], in [3], in [4], in [5] and in assay [6] was more than 100 µM in each case. Further, the TGI in [7], in assay [8], in [9] and in assay [10] was more than 100 µM throughout.

As to `CN(C)CCn1nc(N)c2nc3cc(C(F)(F)F)ccc3nc21`, the TGI in assay [1], in assay [2], in assay [3], in [4], in assay [5] and in assay [6] was more than 100 µM throughout. In addition, the TGI in [7], in assay [8], in [9] and in assay [10] was more than 100 µM each time.

On to `COc1ccc(C[C@@H]2OC3(C=CC(=O)C=C3)O[C@H]2Cc2ccc(OC)cc2)cc1`, for which the TGI is 13.5 µM in [1]; 2.79 µM in assay [2]; 2.53 µM in assay [3]; 2.94 µM in assay [4]; 2.14 µM in assay [5]; 2.05 µM in assay [6]. Further, the TGI in assay [7] was 1.21 µM; in [8], 2.64 µM; in assay [9] it was 3.59 µM; in assay [10] it was 0.377 µM.

On to `CC(=O)N(CN1C(=O)CCC1C(=O)O)c1ccccc1Cl` (stereo not given), for which the TGI in assay [1], in [2], in assay [3], in assay [4], in [5] and in [6] was more than 100 µM in each case. The TGI in assay [7], in assay [8], in [9] and in assay [10] was more than 100 µM throughout.

Regarding `C=C1c2nc3ccccc3n2C=C(c2ccc(OC)cc2)N1c1ccc(OCCN2CCOCC2)cc1`, the TGI in assay [1] was more than 100 µM; in assay [2], more than 57 µM; in assay [3], more than 55.4 µM; in assay [4] it was more than 100 µM; in assay [5], more than 100 µM; in [6], more than 100 µM. Besides, the TGI in assay [7], in assay [8], in assay [9] and in assay [10] was more than 100 µM in each case.

In the case of `O=[N+]([O-])c1ccc2ncccc2c1CCc1c([N+](=O)[O-])ccc2ncccc12`, the TGI in [1], in [2], in assay [3], in assay [4], in assay [5] and in [6] was more than 100 µM throughout. The TGI in assay [7], in assay [8], in assay [9] and in [10] was more than 100 µM throughout.

Consider `Cc1nc2c(=O)[nH]c3ccc(Cl)cc3c2o1`, for which the TGI in assay [1], in assay [2], in assay [3], in assay [4], in assay [5] and in [6] was more than 100 µM in each case. Further, the TGI in [7], in assay [8], in [9] and in [10] was more than 100 µM each time.

`C=CCN1CCC2(CC1)NC(=O)c1ccccc1O2`: the TGI in assay [1], in assay [2], in assay [3], in assay [4], in assay [5] and in [6] was more than 100 µM throughout. For the same compound, the TGI in assay [7], in assay [8], in [9] and in assay [10] was more than 100 µM each time.

Take `COc1cc(C=O)cc(C=Nc2ccc(S(N)(=O)=O)cc2)c1O`: the TGI is 7.93 µM in [1]; 76.9 µM in [2]; 14.6 µM in assay [3]; 23 µM in assay [4]; more than 100 µM in [5]; more than 100 µM in assay [6]. Besides, the TGI in assay [7] was more than 100 µM; in assay [8] it was more than 100 µM; in assay [9] it was 48.5 µM; in [10], 42.7 µM.

In the case of `C[N+](C)(N)c1nc(N)c(C#N)c(C#N)c1C#N`, the TGI in [1], in assay [2], in [3], in [4], in assay [5] and in assay [6] was more than 10 µM in each case. Further, the TGI in assay [7], in assay [8], in assay [9] and in assay [10] was more than 10 µM in each case.

On to `OC1c2ccccc2C(O)C2OC12` (stereo not given), for which the TGI in assay [1], in assay [2], in assay [3], in assay [4], in assay [5] and in [6] was more than 100 µM in each case. Further, the TGI in assay [7], in assay [8], in assay [9] and in [10] was more than 100 µM in each case.

For the compound `OCC(O)C(O)C(O)C(O)/C=N/Nc1nc(O)c(/C=C2\C=Nc3ccccc32)[nH]1` (stereo not given), the TGI in [1], in assay [2], in assay [3], in assay [4], in assay [5] and in assay [6] was more than 100 µM in each case. Moreover, the TGI in assay [7], in assay [8], in [9] and in [10] was more than 100 µM each time.

For `CCOP(=O)(OCC)C(C)(C)OC(=O)NC#N`, the TGI in [1], in assay [2], in assay [3], in assay [4], in assay [5] and in assay [6] was more than 100 µM in each case. Also, the TGI in assay [7], in assay [8], in [9] and in [10] was more than 100 µM each time.
